Measured values published in ChEMBL document CHEMBL1201862, “PubChem BioAssay data set” (2004).
The source made the active and inactive calls.

Experiments:
Cytochrome P450 2C19 = Cytochrome P450 2C19 (Homo sapiens, UniProt P33261); assay: Cytochrome panel assay with activity outcomes. Panel member name: p450-cyp2c19 Compounds with AC50 equal or less than 10 uM are considered active; assay type: functional; conditions: read-out: AC50
H9c2 = assay: cells; assay type: functional, cell-based; conditions: Rattus norvegicus, H9c2, Myocardium
Cytochrome P450 1A2 = target: T1, Cytochrome P450 1A2 (Homo sapiens, UniProt P05177);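 further: PubChem cytochrome P450 panel assay, CYP1A2 panel member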
T1 sequence (P05177 whole entry): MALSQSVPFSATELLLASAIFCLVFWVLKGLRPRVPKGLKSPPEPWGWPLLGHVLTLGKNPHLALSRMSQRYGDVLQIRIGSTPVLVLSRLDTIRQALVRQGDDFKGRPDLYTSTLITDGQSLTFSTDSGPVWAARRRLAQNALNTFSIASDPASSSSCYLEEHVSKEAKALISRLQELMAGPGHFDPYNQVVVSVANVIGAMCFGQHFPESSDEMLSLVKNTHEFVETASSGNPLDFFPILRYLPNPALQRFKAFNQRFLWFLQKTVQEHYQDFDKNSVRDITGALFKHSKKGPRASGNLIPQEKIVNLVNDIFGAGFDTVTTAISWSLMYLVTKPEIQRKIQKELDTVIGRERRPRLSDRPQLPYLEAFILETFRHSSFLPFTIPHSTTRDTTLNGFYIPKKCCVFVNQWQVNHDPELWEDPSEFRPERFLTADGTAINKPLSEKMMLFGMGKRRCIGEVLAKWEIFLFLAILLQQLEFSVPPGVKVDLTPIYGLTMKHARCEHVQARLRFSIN

Cytochrome P450 2C9 = Cytochrome P450 2C9 (Homo sapiens, UniProt P11712)
[1] = target: T2, RNA-binding protein pos-1 (Caenorhabditis elegans, UniProt G5EF15); assay: disruptors of C. elegans POS-1 RNA interaction – biochemical, fluorescence polarization, dose response (AID 1964);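 further: purified POS-1 fused to maltose binding protein made in E. coli; potency of compounds blocking POS-1 binding to fluorescent RNA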
T2 sequence (G5EF15 whole entry): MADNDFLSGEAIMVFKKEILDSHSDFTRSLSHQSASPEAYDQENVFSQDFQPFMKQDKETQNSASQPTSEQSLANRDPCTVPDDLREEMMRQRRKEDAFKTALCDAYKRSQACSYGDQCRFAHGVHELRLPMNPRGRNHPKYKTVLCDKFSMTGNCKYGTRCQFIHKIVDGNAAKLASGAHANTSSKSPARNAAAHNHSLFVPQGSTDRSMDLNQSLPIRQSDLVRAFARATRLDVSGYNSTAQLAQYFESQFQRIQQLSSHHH

[2] = target: T3, Zinc finger protein mex-5 (Caenorhabditis elegans, UniProt Q9XUB2); assay: potency of MEX-5 RNA-binding blockers – biochemical, C. elegans, fluorescence polarization, dose response (AID 1960)
T3 sequence (Q9XUB2 whole entry): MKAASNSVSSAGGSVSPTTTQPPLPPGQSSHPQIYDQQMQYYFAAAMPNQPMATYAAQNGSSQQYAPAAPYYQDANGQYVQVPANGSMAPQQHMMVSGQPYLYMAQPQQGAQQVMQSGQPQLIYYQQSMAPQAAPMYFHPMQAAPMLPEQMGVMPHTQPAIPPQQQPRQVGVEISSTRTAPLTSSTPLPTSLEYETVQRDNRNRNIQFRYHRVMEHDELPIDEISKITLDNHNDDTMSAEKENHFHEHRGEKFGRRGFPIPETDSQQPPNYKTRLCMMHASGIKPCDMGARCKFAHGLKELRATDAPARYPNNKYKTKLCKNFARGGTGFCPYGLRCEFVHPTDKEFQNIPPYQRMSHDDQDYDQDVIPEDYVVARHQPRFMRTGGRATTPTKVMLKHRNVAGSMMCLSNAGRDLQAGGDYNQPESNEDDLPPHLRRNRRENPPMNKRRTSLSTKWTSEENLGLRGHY

Nonstructural protein 1 = Nonstructural protein 1 (Influenza A virus, UniProt Q194T2); assay type: functional, Influenza A virus (A/California/07/2009(H1N1))
[3] = target: T4, Rac GTPase-activating protein 1 (Homo sapiens, UniProt Q9H0H5); assay: blockers of MgcRacGAP-driven Rac1 GTP hydrolysis – biochemical, ADP Hunter fluorescence, primary and confirmatory, confirmation (AID 624330); assay type: functional
T4 sequence (Q9H0H5 whole entry): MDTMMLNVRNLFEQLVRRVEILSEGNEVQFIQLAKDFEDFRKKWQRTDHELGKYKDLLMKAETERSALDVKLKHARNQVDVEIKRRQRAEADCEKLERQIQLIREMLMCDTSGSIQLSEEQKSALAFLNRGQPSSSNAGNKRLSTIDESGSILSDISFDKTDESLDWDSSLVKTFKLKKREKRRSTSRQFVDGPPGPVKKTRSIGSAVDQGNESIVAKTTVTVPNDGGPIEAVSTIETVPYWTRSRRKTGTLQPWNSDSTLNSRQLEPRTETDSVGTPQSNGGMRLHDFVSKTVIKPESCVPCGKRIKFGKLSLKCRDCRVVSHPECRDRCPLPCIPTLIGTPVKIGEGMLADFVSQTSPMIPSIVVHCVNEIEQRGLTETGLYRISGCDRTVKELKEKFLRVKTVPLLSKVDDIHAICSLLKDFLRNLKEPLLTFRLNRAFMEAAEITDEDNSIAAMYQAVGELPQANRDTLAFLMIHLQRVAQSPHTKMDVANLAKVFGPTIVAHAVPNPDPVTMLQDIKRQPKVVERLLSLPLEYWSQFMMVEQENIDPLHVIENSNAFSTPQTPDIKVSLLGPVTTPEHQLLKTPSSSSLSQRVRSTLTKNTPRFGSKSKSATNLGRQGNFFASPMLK

[4] = target: T5, Polyadenylate-binding protein 1 (Homo sapiens, UniProt P11940); assay: MLLE binding blockers, Cy5 peptide tracer – biochemical, fluorescence polarization, Cy5-PAM2 peptide, secondary, miRNA deadenylation inhibitor project, dose response (AID 602260); assay type: functional; conditions: read-out: IC50_Mean
[5] = target: T5, Polyadenylate-binding protein 1; assay: MLLE domain peptide-binding blockers, IC50 – biochemical, fluorescence polarization, FITC-PAM2 peptide, dose response (AID 602259); assay type: functional; conditions: read-out: IC50_Mean
[6] = target: Heat shock protein HSP 90-alpha (Homo sapiens, UniProt P07900); assay type: functional, organism-based
[7] = target: T6, Corticotropin-releasing factor receptor 2/Corticotropin-releasing factor-binding protein (Homo sapiens, UniProt P24387+Q13324); assay: Dose Response confirmation of uHTS hits for small molecule antagonists of the CRF-binding protein and CRF-R2 receptor complex.; assay type: functional; conditions: read-out: IC50_Mean
T6 sequence (Q13324 whole entry): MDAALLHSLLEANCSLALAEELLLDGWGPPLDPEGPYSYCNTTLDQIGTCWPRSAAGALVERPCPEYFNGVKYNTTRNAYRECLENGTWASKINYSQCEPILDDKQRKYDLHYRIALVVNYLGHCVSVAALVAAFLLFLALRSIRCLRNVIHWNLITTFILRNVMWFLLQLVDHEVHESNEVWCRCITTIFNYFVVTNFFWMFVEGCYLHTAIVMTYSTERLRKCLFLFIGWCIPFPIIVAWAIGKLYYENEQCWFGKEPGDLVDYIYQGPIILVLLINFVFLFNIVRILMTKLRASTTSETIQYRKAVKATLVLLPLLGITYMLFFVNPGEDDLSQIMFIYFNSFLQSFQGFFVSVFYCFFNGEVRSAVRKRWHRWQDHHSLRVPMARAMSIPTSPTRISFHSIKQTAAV
T6 sequence (P24387 whole entry): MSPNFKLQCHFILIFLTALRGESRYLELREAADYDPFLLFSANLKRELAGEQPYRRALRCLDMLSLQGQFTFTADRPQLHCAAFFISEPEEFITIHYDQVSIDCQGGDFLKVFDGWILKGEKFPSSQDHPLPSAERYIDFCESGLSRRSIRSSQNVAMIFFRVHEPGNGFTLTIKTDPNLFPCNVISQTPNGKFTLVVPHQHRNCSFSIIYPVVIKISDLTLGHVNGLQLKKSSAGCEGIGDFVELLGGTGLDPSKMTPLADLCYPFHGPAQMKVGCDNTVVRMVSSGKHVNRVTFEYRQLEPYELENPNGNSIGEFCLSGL

[8] = target: T6, Corticotropin-releasing factor receptor 2/Corticotropin-releasing factor-binding protein; assay: activators of CRF receptor 2 with binding protein – uHTS hits, confirmation (AID 602473); assay type: functional; conditions: read-out: EC50_Mean

Nonstructural protein 1, sequence (Q194T2 whole entry): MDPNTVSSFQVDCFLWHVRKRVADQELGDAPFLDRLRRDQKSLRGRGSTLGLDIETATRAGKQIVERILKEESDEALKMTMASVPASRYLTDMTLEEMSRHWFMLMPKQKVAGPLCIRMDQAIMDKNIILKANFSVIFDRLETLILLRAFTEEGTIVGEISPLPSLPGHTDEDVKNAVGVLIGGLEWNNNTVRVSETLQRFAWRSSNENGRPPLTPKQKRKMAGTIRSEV
T5 sequence (P11940 whole entry, the tested form may be a part): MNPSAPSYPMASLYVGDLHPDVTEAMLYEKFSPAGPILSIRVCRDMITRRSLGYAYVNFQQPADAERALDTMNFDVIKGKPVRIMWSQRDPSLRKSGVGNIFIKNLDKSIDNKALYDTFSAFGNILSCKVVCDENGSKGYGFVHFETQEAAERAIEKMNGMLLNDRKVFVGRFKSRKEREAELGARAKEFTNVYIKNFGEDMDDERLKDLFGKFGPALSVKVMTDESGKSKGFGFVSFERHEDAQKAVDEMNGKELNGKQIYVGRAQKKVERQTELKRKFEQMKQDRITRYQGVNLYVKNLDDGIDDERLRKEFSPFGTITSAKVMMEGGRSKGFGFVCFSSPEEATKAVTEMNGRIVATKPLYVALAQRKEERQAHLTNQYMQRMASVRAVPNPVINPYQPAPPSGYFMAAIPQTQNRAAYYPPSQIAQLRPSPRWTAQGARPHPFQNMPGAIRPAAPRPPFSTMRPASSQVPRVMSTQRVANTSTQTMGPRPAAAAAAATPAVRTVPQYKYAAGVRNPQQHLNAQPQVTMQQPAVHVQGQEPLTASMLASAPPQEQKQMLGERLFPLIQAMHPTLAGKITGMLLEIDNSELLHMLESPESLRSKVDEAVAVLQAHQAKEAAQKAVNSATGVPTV
Cytochrome P450 2C9, sequence (P11712 whole entry, the tested form may be a part): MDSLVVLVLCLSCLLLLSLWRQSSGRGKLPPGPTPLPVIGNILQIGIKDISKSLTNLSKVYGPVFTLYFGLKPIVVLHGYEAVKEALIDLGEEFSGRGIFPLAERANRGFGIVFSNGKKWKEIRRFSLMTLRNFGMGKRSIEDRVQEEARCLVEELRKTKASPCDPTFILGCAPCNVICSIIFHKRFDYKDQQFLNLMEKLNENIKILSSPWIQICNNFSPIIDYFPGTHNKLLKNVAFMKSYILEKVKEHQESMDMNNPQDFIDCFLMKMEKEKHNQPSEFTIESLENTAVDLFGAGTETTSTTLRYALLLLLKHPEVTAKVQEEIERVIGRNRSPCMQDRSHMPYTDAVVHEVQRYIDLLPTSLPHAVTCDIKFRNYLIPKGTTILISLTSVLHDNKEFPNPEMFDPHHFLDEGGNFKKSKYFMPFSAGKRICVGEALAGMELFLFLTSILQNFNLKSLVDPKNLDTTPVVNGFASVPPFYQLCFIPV
Cytochrome P450 2C19, sequence (P33261 whole entry): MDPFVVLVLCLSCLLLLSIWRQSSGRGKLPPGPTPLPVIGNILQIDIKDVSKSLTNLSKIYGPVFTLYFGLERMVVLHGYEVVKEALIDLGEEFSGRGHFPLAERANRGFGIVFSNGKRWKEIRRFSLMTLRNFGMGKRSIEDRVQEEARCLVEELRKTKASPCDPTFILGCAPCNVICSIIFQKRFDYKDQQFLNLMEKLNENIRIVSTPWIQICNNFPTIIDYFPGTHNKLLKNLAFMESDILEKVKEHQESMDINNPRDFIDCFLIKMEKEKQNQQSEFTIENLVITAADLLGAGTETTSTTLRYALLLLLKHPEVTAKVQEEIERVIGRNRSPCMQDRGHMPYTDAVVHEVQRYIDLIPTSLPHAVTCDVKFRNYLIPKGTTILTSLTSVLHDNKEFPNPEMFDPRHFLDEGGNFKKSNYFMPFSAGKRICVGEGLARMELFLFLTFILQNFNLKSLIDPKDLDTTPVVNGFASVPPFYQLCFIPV

## CCOC(=O)c1ccc(-c2ccc(/C=C(\C#N)C(=O)NCC3CCCO3)o2)cc1 (stereo unspecified)
Cytochrome P450 2C19
  AC50: 2.51 µM (inconclusive)
H9c2
  IC50: > 79 µM (inactive)
Cytochrome P450 1A2
  AC50: 4.47 µM (inconclusive)
Cytochrome P450 2C9
  AC50: 5.62 µM (inconclusive)

## O=C(NCc1ccncc1)C(=O)N/N=C/c1ccccn1
[1]
  EC50: 86.1 µM (active)
[2]
  EC50: 24.2 µM (active)

## CN(CC(=O)Nc1cccc(F)c1)C(=O)CCCc1nc(O)c2ccccc2n1
H9c2
  IC50: > 79 µM (inactive)

## COc1ccc2cc3cc(C(=O)N4CCN(Cc5ccc6c(c5)OCO6)CC4)oc3nc2c1
Nonstructural protein 1
  IC50: > 100 µM (active)

## CS(=O)(=O)N(Cc1ccc(C(=O)NCCSc2ccccn2)cc1)c1ccccc1
H9c2
  IC50: 17.4 µM (active)

## Oc1ccc(-c2csc(Nc3cccnc3)n2)cc1
[3]
  IC50: 18.2 µM (active)

## CCOC(=O)c1ccccc1N1C(=O)CSC1=S
[4]
  IC50: > 66 µM (inactive)
[5]
  IC50: > 66 µM (inactive)

## CCOc1cc(/C=C/c2nc(O)c3ccccc3n2)ccc1O
H9c2
  IC50: 9.17 µM (active)

## CC(=O)Nc1cccc(-c2cc(NC(C)=O)c3ncc(-c4cccc(C(C)=O)c4)n3c2)c1
H9c2
  IC50: > 79 µM (inactive)

## COC(=O)c1ccc(-n2c(C)cc(/C=N/Nc3nc(C)cc(O)n3)c2C)cc1
[1]
  EC50: > 300 µM (not active)
[2]
  EC50: > 300 µM (not active)

## COc1cc(-c2cc(NC(C)=O)c3ncc(-c4cc(OC)c(OC)c(OC)c4)n3c2)cc(OC)c1OC
H9c2
  IC50: > 79 µM (inactive)

## O=C(NC1CCCCCC1)C(=S)NCCc1ccccc1
[4]
  IC50: > 66 µM (inactive)
[5]
  IC50: > 66 µM (inactive)

## CCCCn1c(NC(=S)Nc2ccccc2)nc2ccccc21
[4]
  IC50: > 66 µM (inactive)
[5]
  IC50: > 66 µM (inactive)

## O=C1CSC(Nc2ccc(O)cc2)=N1
[3]
  IC50: 35.9 µM (active)

## O=[N+]([O-])c1ccc(N/N=C2\CC3CC=CC23)c([N+](=O)[O-])c1 (stereo unspecified)
Nonstructural protein 1
  IC50: 35.3 µM (active)

## CCS(=O)(=O)c1ccc2oc(=O)c(/C=C(\O)c3ccc(Cl)cc3)nc2c1
[3]
  IC50: 99.7 µM (active)

## CCOC(=O)c1ccccc1NC(=O)c1ccc2c(=O)n3c(nc2c1)CCCCC3
H9c2
  IC50: > 79 µM (inactive)

## Cc1c(N=NC2=C(O)CCCC2=O)c(=O)n(-c2ccccc2)n1C
Nonstructural protein 1
  IC50: 2.9 µM (active)

## Oc1ccc(-c2c(-c3ccsc3)sc3ccccc23)cc1
[6]
  AC50: 3.3 µM (active)

## CCOC(=O)c1sc(-c2ccc(C(F)(F)F)cc2)nc1O
[6]
  AC50: 3.14 µM (active)
[7]
  IC50: > 47.1 µM (inactive)
[8]
  EC50: 11.9 µM (active)

## COc1cccc(OCCn2cc(C=O)c3ccccc32)c1
[1]
  EC50: > 300 µM (not active)
[2]
  EC50: > 300 µM (not active)

## CCOc1cc(/C=N/NC(=O)C(C)Sc2ccccn2)ccc1O (stereo unspecified)
[3]
  IC50: 39.8 µM (active)

## c1csc(C2Nc3cccc4cccc(c34)N2)c1
[4]
  IC50: > 66 µM (inactive)
[5]
  IC50: > 66 µM (inactive)

## O=S(=O)(/C=C/c1ccccc1)NC1CCCCCCC1
[6]
  AC50: 24.7 µM (active)

## COCCN1CCC(CNCc2c[nH]nc2-c2ccc(C)c(C)c2)C1 (stereo unspecified)
[1]
  EC50: > 300 µM (not active)
[2]
  EC50: > 300 µM (inconclusive)

## CN(C)c1ccc(/C=N/N(CCC(=O)NC(C)(C)C)C2=NS(=O)(=O)c3ccccc32)cc1
[1]
  EC50: > 300 µM (not active)

## Oc1ccc(N2CCN(c3ccnc4cc(Cl)ccc34)CC2)cc1
[3]
  IC50: 48.3 µM (active)

## COc1cc(/C=C/C(=O)OC(C)C(=O)Nc2c(C)n(C)n(-c3ccccc3)c2=O)ccc1O (stereo unspecified)
[3]
  IC50: 61.4 µM (active)

## COc1ccc(CCCNC(=O)C2(C)Cc3c(-c4ccc(NC(C)=O)cc4)ccnc3O2)cc1 (stereo unspecified)
H9c2
  IC50: > 79 µM (inactive)

## CCOC(=O)c1ccccc1OCc1cc(/C=N/NC(=O)c2cccnc2)ccc1OC
H9c2
  IC50: > 79 µM (inactive)

## O=C1N=C(N2CCCCC2)S/C1=C/C1=Cc2ccccc2OC1
[1]
  EC50: > 300 µM (not active)
[2]
  EC50: > 300 µM (not active)

## O=C(NC(=S)Nc1ccc(CN2CCCCC2)cc1)c1ccco1
[4]
  IC50: > 66 µM (inactive)
[5]
  IC50: > 66 µM (inactive)

## CN(CC(=O)NCc1ccccn1)S(=O)(=O)c1ccc(Br)cc1
[1]
  EC50: > 300 µM (not active)
[2]
  EC50: > 300 µM (not active)

## O=C(CCCSc1nc(O)c2c3c(sc2n1)CCC3)NCCCO
H9c2
  IC50: 19.9 µM (active)

## COc1ccc(N2CCN(c3c(S(=O)(=O)c4ccccc4)cnc4ccc(OC)cc34)CC2)cc1
[6]
  AC50: 2.76 µM (active)

## COc1ccc(C(=O)NNC(=O)c2ccc3ccccc3n2)cc1
H9c2
  IC50: > 79 µM (inactive)

## COc1cc(CNC2CCCCC2OC)cc(OC)c1 (stereo unspecified)
[3]
  IC50: 152 µM (active)

## COc1cc([C@H](Cc2ccccc2)NC(C)=O)oc(=O)c1
[1]
  EC50: 38.7 µM (active)
[2]
  EC50: 27.9 µM (active)

## COc1cccc(CNC(=O)CSc2ccc(-c3ccccn3)nn2)c1
Nonstructural protein 1
  IC50: 20.6 µM (active)
